According to article PMC7920804 (Bioorganic & Medicinal Chemistry Letters, 2021):

Experiments:
SARS-CoV-2 [1] = system: SARS-CoV-2
SARS-CoV-2 [2] = assay: microbe, parasite or virus in culture; conditions: Severe acute respiratory syndrome coronavirus 2, Vero, read-out: SARS-CoV-2 IC50
CYP3A4 = CYP3A4 (Homo sapiens, UniProt P08684); assay: CYP inhibition assay, 3A4; type: in vitro ADME
in vivo = conditions: rat, po, 10 mg/kg
CYP1A2 = biological target: T1, CYP1A2 (Homo sapiens, UniProt P05177); assay: CYP inhibition assay, 1A2; type: in vitro ADME
T1 sequence (P05177 1-516): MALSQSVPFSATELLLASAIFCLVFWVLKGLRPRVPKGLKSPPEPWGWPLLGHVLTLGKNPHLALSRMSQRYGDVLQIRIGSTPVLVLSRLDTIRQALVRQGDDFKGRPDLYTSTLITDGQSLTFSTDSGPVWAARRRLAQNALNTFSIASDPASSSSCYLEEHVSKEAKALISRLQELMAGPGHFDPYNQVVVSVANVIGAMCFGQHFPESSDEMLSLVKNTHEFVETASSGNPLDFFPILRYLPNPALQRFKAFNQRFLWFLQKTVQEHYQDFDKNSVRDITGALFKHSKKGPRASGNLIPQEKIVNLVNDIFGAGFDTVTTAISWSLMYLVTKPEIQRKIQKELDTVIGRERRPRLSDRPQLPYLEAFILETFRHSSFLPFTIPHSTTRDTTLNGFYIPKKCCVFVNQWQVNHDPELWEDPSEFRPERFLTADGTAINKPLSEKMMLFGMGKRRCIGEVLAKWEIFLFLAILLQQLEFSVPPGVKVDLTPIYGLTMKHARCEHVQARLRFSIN

CYP3A4, sequence (P08684 whole entry): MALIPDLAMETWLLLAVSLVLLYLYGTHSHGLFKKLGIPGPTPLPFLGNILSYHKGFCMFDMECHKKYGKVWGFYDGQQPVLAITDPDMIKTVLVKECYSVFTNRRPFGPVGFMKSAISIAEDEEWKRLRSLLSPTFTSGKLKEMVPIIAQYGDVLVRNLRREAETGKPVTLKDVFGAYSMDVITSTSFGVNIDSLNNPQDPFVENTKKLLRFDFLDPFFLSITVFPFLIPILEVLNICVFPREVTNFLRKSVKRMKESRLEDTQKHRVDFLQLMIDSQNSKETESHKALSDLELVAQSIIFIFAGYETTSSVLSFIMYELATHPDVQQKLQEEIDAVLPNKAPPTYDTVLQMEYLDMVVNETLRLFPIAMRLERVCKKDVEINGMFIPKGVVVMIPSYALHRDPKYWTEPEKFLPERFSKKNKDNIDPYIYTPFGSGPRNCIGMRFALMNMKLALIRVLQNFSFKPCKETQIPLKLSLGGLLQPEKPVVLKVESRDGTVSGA

Compound | SARS-CoV-2 IC50 (SARS-CoV-2 [1]) | IC50 (SARS-CoV-2 [2]) | other results
COc1cccc2nc(Nc3cc(F)cc(F)c3)[nH]c(=O)c12 [Compound 10d] | no inhibitory effects |  | 
CCCCNc1nc2cc(Cl)ccc2c(=O)[nH]1 [Compound 9p] |  | > 14 µM | 
O=c1[nH]c(Nc2cc(Cl)cc(Cl)c2)nc2cc(N3CCOCC3)ccc12 [Compound 11k] | no anti-SARS-CoV-2 activity |  | 
COc1cccc2nc(Nc3cc(Cl)cc(Cl)c3)[nH]c(=O)c12 [Compound 11d] | no inhibitory effects |  | 
O=c1[nH]c(Nc2ccccc2F)nc2cc(Cl)ccc12 [Compound 9a] | no inhibitory effect |  | 
O=c1[nH]c(NCC2CCCCC2)nc2cc(Cl)ccc12 [Compound 9n] |  | > 14 µM | 
Nc1ccc2c(=O)[nH]c(Nc3cc(Cl)cc(Cl)c3)nc2c1 [Compound 11c] | no inhibitory effects |  | 
COc1cccc(Nc2nc3cc(Cl)ccc3c(=O)[nH]2)c1 [Compound 9h] |  | > 11 µM | 
Cc1cc(C)c2nc(Nc3cc(Cl)cc(Cl)c3)[nH]c(=O)c2c1 [Compound 11h, 2-((3,5-Dichlorophenyl)amino)-6,8-dimethylquinazolin-4(3H)-one] | no inhibitory effects |  | 
CC(C)Nc1nc2cc(Cl)ccc2c(=O)[nH]1 [Compound 9o] |  | > 14 µM | 
Cc1cc(C)c2nc(Nc3cc(F)cc(F)c3)[nH]c(=O)c2c1 [Compound 10h] | no inhibitory effects |  | 
O=c1[nH]c(Nc2ccc(F)cc2F)nc2cc(Cl)ccc12 [Compound 9d] | no activity |  | 
Nc1ccc2c(=O)[nH]c(Nc3cc(F)cc(F)c3)nc2c1 [Compound 10c] | no inhibitory effects |  | 
O=c1[nH]c(Nc2ccc(F)cc2)nc2cc(Cl)ccc12 [Compound 9c] | no inhibitory effect |  | 
O=c1[nH]c(Nc2cc(F)cc(F)c2)nc2cc(O)ccc12 [Compound 10g] | no inhibitory effects |  | 
O=c1[nH]c(Nc2cc(Cl)cc(Cl)c2)nc2cc(Cl)ccc12 [Compound 9g, 7-chloro-2-((3,5-dichlorophenyl)amino)quinazolin-4(3H)-one] |  | < 0.25 µM | 
O=c1[nH]c(N2CCCCC2)nc2cc(Cl)ccc12 [Compound 9q] |  | > 14 µM | 
O=c1[nH]c(Nc2cc(Cl)cc(Cl)c2)nc2cccc(O)c12 [Compound 11e, 2-((3,5-dichlorophenyl)amino)-5-hydroxyquinazolin-4(3H)-one] |  | < 0.25 µM | inhibition at 10 µM (CYP3A4): > 65%; Cmax (in vivo): 60 ng/mL; inhibition at 10 µM (CYP1A2): > 65%
O=c1[nH]c(Nc2cc(Cl)cc(Cl)c2)nc2cc(O)ccc12 [Compound 11g] | no inhibitory effects |  | 
